The values below come from PubChem BioAssay (NCI).

Test systems include SW-620 colon; TK-10 renal; HT29 colon; MDA-MB-231 breast; A549 NSCLC; KM12 colon; CAKI-1 renal; SR leukemia; M14 melanoma; HCT-15 colon.
Common to all, as to assay: growth of human tumour cells (NCI), 48 h

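Protocol summary: plate cells (96-well), add compound at 5 concentrations, incubate 48 h, interpolate endpoints linearly. GI50 is the concentration that inhibits growth by half. At the TGI there is no net growth.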

Take `FC(F)(F)c1ccc(-c2cnc(Br)nc2NC2CCCCCC2)cc1`: the GI50 in the experiment on SW-620 colon was 96.7 µM; in the experiment on TK-10 renal, more than 100 µM; with HT29 colon it was 71.4 µM; with MDA-MB-231 breast, 12.3 µM; with A549 NSCLC it was 86.5 µM; in the experiment with KM12 colon it was 52 µM. The GI50 in the experiment with CAKI-1 renal is 92.9 µM; in the experiment with SR leukemia it was 30.5 µM; with M14 melanoma, more than 100 µM; in the experiment on HCT-15 colon it was 55.2 µM. In addition, the TGI with SW-620 colon, with TK-10 renal, in the experiment on HT29 colon, in the experiment with MDA-MB-231 breast, in the experiment on A549 NSCLC and with KM12 colon was more than 100 µM in each case. The TGI in the experiment on CAKI-1 renal, with SR leukemia, in the experiment with M14 melanoma and in the experiment on HCT-15 colon was more than 100 µM in each case.
On to `C[C@H]1[C@@H](OCC(CO[C@H]2O[C@@H]3O[C@@]4(C)CC[C@H]5[C@H](C)CC[C@@H]([C@H]2C)[C@@]35OO4)=NOCC(=O)O)OC2O[C@@]3(C)CC[C@H]4[C@H](C)CC[C@@H]1[C@@]24OO3` (stereo not given in full), for which the GI50 in the experiment on SW-620 colon is less than 0.0137 µM; in the experiment with TK-10 renal, 0.0408 µM; with HT29 colon it was less than 0.01 µM; with MDA-MB-231 breast, 0.12 µM; with A549 NSCLC, 0.0865 µM; with KM12 colon it was less than 0.0166 µM. In addition, the GI50 with CAKI-1 renal is 0.117 µM; in the experiment on SR leukemia it was less than 0.01 µM; in the experiment on M14 melanoma it was 0.205 µM; in the experiment on HCT-15 colon, less than 0.01 µM. Besides, the TGI in the experiment with SW-620 colon came out at 18 µM; in the experiment on TK-10 renal, 4.57 µM; with HT29 colon, 15 µM; with MDA-MB-231 breast it was 2.41 µM; with A549 NSCLC it was 15.9 µM; with KM12 colon, 13 µM. The TGI with CAKI-1 renal amounted to 3.12 µM; with SR leukemia it was 11.8 µM; with M14 melanoma, 18.8 µM; in the experiment on HCT-15 colon, 0.891 µM.
As to `CCSC1=CC(=O)c2ccccc2C1=O`, the GI50 with SW-620 colon is 1.56 µM; in the experiment with TK-10 renal it was 2.5 µM; in the experiment with HT29 colon, 15.5 µM; in the experiment on MDA-MB-231 breast it was 0.759 µM; in the experiment with A549 NSCLC, 19.9 µM; in the experiment with KM12 colon, 11 µM. For the same molecule, the GI50 in the experiment with CAKI-1 renal is 1.96 µM; in the experiment with SR leukemia, 2.57 µM; in the experiment with M14 melanoma it was 12.8 µM; in the experiment with HCT-15 colon it was 13.9 µM. The TGI with SW-620 colon worked out at 3.42 µM; with TK-10 renal, 4.65 µM; in the experiment on HT29 colon, 34.7 µM; in the experiment with MDA-MB-231 breast, 3.3 µM; in the experiment with A549 NSCLC it was 41.3 µM; with KM12 colon, 25.4 µM. The TGI was found to be 5.5 µM in the experiment with CAKI-1 renal, 6.8 µM in the experiment on SR leukemia, 26 µM in the experiment with M14 melanoma and 31.4 µM in the experiment with HCT-15 colon.
With `COC(=O)CCC1=C(C)c2cc3[n-]c(cc4nc(cc5[n-]c(cc1n2)c(CCC(=O)OC)c5C)C=C4C)cc3C.[Cd+2]`, the GI50 with SW-620 colon is 4.44 µM; in the experiment on TK-10 renal, 5.25 µM; in the experiment with HT29 colon, 6.74 µM; with MDA-MB-231 breast, 7.28 µM; in the experiment on A549 NSCLC, 4.24 µM; in the experiment on KM12 colon it was 3.46 µM. Moreover, the GI50 with CAKI-1 renal is 12.4 µM; in the experiment on SR leukemia, 3.16 µM; in the experiment on M14 melanoma, 5.54 µM; with HCT-15 colon, 11.8 µM. The TGI with SW-620 colon worked out at 18.4 µM; in the experiment with TK-10 renal it was 13.6 µM; in the experiment on HT29 colon, 26.3 µM; in the experiment with MDA-MB-231 breast, 31.4 µM; in the experiment with A549 NSCLC, 22.9 µM; with KM12 colon, 13.6 µM. In addition, the TGI is 38.1 µM in the experiment on CAKI-1 renal, 8.91 µM with SR leukemia, 22.8 µM in the experiment on M14 melanoma and more than 55 µM with HCT-15 colon.
`C[C@@H]1CC[C@@]2(OC1)O[C@H]1C[C@H]3[C@@H]4CC=C5C[C@@H](O[C@@H]6O[C@H](CO)[C@@H](O[C@@H]7O[C@@H](CO)[C@H](O)[C@H]7O)[C@H](O)[C@H]6O[C@@H]6O[C@@H](C)[C@H](O)[C@@H](O)[C@H]6O)CC[C@]5(C)[C@H]4CC[C@]3(C)[C@H]1[C@@H]2C`: the GI50 with SW-620 colon is 0.577 µM; in the experiment on HT29 colon, 1.06 µM; with MDA-MB-231 breast it was 0.514 µM; in the experiment on SR leukemia, 0.565 µM; in the experiment on HCT-15 colon it was 1.12 µM. In addition, the TGI in the experiment on SW-620 colon was 1.93 µM; with TK-10 renal, 2.19 µM; in the experiment on HT29 colon it was 2.46 µM; in the experiment on MDA-MB-231 breast it was 1.77 µM; in the experiment with A549 NSCLC, 2.04 µM; in the experiment with KM12 colon, 2.15 µM. The TGI with CAKI-1 renal was 2.05 µM; with SR leukemia, 2.39 µM; in the experiment on M14 melanoma, 2.07 µM; in the experiment with HCT-15 colon it was 2.46 µM.
Regarding `C=C1C(C)C2C(Cc3ccccc3)NC(=O)C23C(OC(C)=O)/C=C/C(C)(O)CC(C)C/C=C/C3C1O` (stereo not given), the TGI in the experiment on SW-620 colon is more than 100 µM; in the experiment with TK-10 renal, more than 54.5 µM; in the experiment with HT29 colon, more than 100 µM; with MDA-MB-231 breast, more than 100 µM; with A549 NSCLC, more than 100 µM; in the experiment on KM12 colon, more than 100 µM. For the same molecule, the TGI with CAKI-1 renal is 3.08 µM; with SR leukemia it was more than 59.9 µM; in the experiment with M14 melanoma it was more than 100 µM; in the experiment on HCT-15 colon, more than 100 µM.
As for `O=C1c2ccccc2C(=O)N1c1ccc(OCCN2CCCCC2)cc1`, the TGI with SW-620 colon, with TK-10 renal, in the experiment on HT29 colon, with MDA-MB-231 breast, in the experiment with A549 NSCLC and in the experiment on KM12 colon was more than 100 µM throughout. In addition, the TGI in the experiment on CAKI-1 renal, in the experiment on SR leukemia, in the experiment with M14 melanoma and in the experiment on HCT-15 colon was more than 100 µM each time.
Turning to `O=C1/C(=C/c2cccs2)CCC/C1=C\c1cccs1`, the GI50 in the experiment on SW-620 colon is more than 100 µM; with TK-10 renal, 25.9 µM; in the experiment on HT29 colon, more than 100 µM; with MDA-MB-231 breast, 44.6 µM; in the experiment with A549 NSCLC, 68.3 µM; in the experiment with KM12 colon, more than 100 µM. For the same molecule, the GI50 with CAKI-1 renal is 55.8 µM; with SR leukemia, more than 94.9 µM; in the experiment with M14 melanoma, more than 100 µM; in the experiment on HCT-15 colon it was more than 100 µM. Further, the TGI was more than 100 µM with SW-620 colon; more than 71.8 µM in the experiment with TK-10 renal; more than 100 µM in the experiment with HT29 colon; more than 100 µM with MDA-MB-231 breast; more than 100 µM in the experiment on A549 NSCLC; more than 100 µM with KM12 colon. Also, the TGI in the experiment with CAKI-1 renal, with SR leukemia, in the experiment on M14 melanoma and in the experiment with HCT-15 colon was more than 100 µM each time.
